Legend:
A431 cells (EGFR WT) = assay: Cell antiproliferation experiment (1), A431 cells, CellTiter Glo; assay type: cell-based; details: Homo sapiens, A-431, 72 h, read-out: anti-proliferation effect on cells A431 EGFR WT IC50
Protocol: 1) Cell Culture and Passage
(1) A431 medium: 88% DMEM+10% fetal bovine serum+1% L-glutamine+1% double-antibody
(2) A431 cells were isolated and passaged every 3-4 days, wherein the number of the cells for 3-day passage was 5e6 cells per T75 culture flask, and the number of the cells for 4-day passage was 3e6 cells per T75 culture flask.
2) Day 1: Preparation of Cell Plate
(1) Phosphate buffer, trypsin, and a culture medium were placed in a water bath at 37° C. to preheat.
(2) The original medium was removed from the cell culture flask and washed once with 6 mL of PBS.
(3) 5 mL of phosphate buffer was pipetted into the culture flask to rinse the cells (passage 17), and then the liquid was discarded.
(4) The cell culture flask was added with 3.5 mL of trypsin, and shaken gently, trypsin was removed after fully contact with the cells, and then the culture flask was placed in an incubator containing 5% CO2 at 37° C. for about 1 minute;
(5) The cells were resuspended in 10 mL cell culture medium, and about 0.6 mL of cell suspension was take out for counting (ViCell XR);
(6) The cell suspension was diluted with the medium to the cell density of 5e4 cells per ml, which was required for plating (cell concentration: 2500 cells per well);
(7) 100 μL of phosphate buffer solution was added to each well around the cell plate, while 50 μL of the cell suspension was added to other wells, and the plate was incubated overnight in a incubator containing 5% CO2 at 37° C.
(1) 9 μL of the compound (concentration: 1 mM) was added into a shallow well plate for Echo.
(2) The shallow well plate was centrifuged at 1000 rpm for 10 s and the cell plate was removed from the incubator.
(3) According to the layout of the microplate, the compounds was diluted with a three-fold concentration gradient using Echo, each compound was diluted to 10 concentration gradients and 250 nL of the diluted compounds was respectively added to the cell plate, and then the cell plate was returned to the incubator and further incubated for 3 days.
4) Day 5: Adding CTG and Reading the Plate
(1) After incubation for 72 h, 25 μL of CellTiter Glo was added to each well of the cell plate, followed by shaking the plate for 10 min in the dark.
(2) The plate was read on Envision.
Data analysis: By computer fitting, the corresponding concentration of the compound at 50% inhibition rate was read as the IC50 of the compound for inhibiting cell activity.

[1] = test system: pEGFR Ba/F3 (EGFR Δ19del/T790M/C797S) cells; assay: Cell phosphorylation inhibition experiment, pEGFR Ba/F3 (EGFR Δ19del/T790M/C797S); assay type: cell-based; details: Ba/F3 EGFR; Ba/F3 cells, EGF stimulated; read-out: Effect on cellular EGFR phosphorylation Ba/F3(Δ19del/T790M/C797S) IC50
Protocol: The test compounds and reference compounds were diluted with 100% DMSO to 10 mM or 1 mM, and then a gradient dilution was performed by using Echo, 150 nL per well, with a three-fold concentration gradient and a ten-point dose response curve. The final concentration of the compounds was 100 μM or 10 μM. The suspension cells was centrifuged at 1000 rp for 5 minutes, suspend in Hanks' balanced salt solution, and added to a 384-well plate containing the compounds at 10 L/120K/well (the cell density of 1.2×10^7), followed by centrifugation at 1200 rpm for 30 s and incubation at 37° C. for 30 min. 5 μL of EGF (which has been diluted with 0.1% BSA Hanks' balanced salt solution) was added to each well, in which the final concentration of EGF was 1 μM. The plate was centrifuged at 1200 rpm for 30 s and incubated at 37° C. for 20 min. 5 μL of 4× lysis buffer containing blocking solution was added to each well, and then the plate was centrifuged at 1200 rpm for 30 s, and incubated at 37° C. for 30 min.

[2] = test system: Ba/F3 (EGFR Δ19del/T790M/C797S) cells; assay: Anti-proliferation experiment on cells (2), Ba/F3 (EGFR Δ19del/T790M/C797S); assay type: cell-based; details: Ba/F3 EGFR, 72 h; Ba/F3 cells, 3 days; read-out: anti-proliferation effect on cells Ba/F3(Δ19del/T790M/C797S) IC50
Protocol: The compounds ware transferred to a 384-well plate, with 125 nL of compound per well. […] After 3 days, 25 μL of detection reagent was added. The plate was incubated at room temperature for 10 minutes and then read with Envision.

[3] = target: EGFR (Δ19del/T790M/C797S) (Homo sapiens, UniProt P00533, C797S/T790M, form not given); assay: Enzyme activity experiment (1): EGFR (Δ19del/T790M/C797S) enzyme inhibition; assay type: biochemical; details: read-out: EGFR (Δ19del/T790M/C797S) IC50
Protocol: 1) 10 μL of the compounds to be tested and reference compounds diluted to 10 mM were taken into an Echo LDV plate, which were diluted according to the compound profile with Echo.
1) 1×enzyme reaction buffer was prepared: 1× enzyme buffer, 5 mM MgCl2, 1 mM DTT (dithiothreitol), water.
2) A mixed solution of 10 nM enzyme (final concentration of 5 nM) and 2 μM substrate (final concentration of 1 μM) and a solution containing the substrate alone were prepared with the diluted enzyme reaction buffer.
3) 5 μL of the substrate was added into A1-H1, J24-P24 (the number of the well position), and 5 μL of the mixture of the enzyme and substrate was added into the remaining wells.
4) Centrifugation was performed at 1000 rpm at 23° C. for 30 s.
5) Incubation was performed at 23° C. for 15 min.
7) Centrifugation was performed at 1000 rpm at 23° C. for 30 s.
8) Incubation was performed at 23° C. for 60 min.
9) 10 μL of 250 nM TK Antibody-Crypate (a final concentration of 125 nM) and 1×D2 (a final concentration ½ time) prepared with Detection buffer were added.
10) Centrifugation was performed at 1000 rpm at 23° C. for 30 s.
11) Incubation was performed at 23° C. for 60 min.
12) The data was read with Envision, and the ratio was calculated to obtain the IC50 of the compound for inhibiting the enzyme activity.

[4] = test system: PC9 (EGFR-C797S/T790M/del19); details: combination with panitumumab or cetuximab; Nature Communications 8:14768, 2017; cited from earlier work
[5] = Plasma, tumor and lung exposure in mice of the Ba/F3 CDX efficacy experiment; assay type: in vivo; details: mouse, 15.0 mg/kg/day oral
Protocol: On Day 14 after administration to the groups for the efficacy experiment, the plasma was collected from the mice by submandibular blood collection before last administration and 2 hours after last administration, and the plasma samples were collected from the mice at 1 h, 4 h, 8 h and 24 h after administration. About 100 ul of blood was collected each time, placed in an anticoagulation tube, and centrifuged at 8000 rpm for 7 min, to collect plasma, which was stored at −80° C.

[6] = test system: L858R/T790M/C797S mutations model; details: combined with EGFR monoclonal antibody such as cetuximab; Nature 534, 129-132, 2016; cited from earlier work

Sequence of EGFR (Δ19del/T790M/C797S) (P00533 25-1210 T790M/C797S limits assumed, form open): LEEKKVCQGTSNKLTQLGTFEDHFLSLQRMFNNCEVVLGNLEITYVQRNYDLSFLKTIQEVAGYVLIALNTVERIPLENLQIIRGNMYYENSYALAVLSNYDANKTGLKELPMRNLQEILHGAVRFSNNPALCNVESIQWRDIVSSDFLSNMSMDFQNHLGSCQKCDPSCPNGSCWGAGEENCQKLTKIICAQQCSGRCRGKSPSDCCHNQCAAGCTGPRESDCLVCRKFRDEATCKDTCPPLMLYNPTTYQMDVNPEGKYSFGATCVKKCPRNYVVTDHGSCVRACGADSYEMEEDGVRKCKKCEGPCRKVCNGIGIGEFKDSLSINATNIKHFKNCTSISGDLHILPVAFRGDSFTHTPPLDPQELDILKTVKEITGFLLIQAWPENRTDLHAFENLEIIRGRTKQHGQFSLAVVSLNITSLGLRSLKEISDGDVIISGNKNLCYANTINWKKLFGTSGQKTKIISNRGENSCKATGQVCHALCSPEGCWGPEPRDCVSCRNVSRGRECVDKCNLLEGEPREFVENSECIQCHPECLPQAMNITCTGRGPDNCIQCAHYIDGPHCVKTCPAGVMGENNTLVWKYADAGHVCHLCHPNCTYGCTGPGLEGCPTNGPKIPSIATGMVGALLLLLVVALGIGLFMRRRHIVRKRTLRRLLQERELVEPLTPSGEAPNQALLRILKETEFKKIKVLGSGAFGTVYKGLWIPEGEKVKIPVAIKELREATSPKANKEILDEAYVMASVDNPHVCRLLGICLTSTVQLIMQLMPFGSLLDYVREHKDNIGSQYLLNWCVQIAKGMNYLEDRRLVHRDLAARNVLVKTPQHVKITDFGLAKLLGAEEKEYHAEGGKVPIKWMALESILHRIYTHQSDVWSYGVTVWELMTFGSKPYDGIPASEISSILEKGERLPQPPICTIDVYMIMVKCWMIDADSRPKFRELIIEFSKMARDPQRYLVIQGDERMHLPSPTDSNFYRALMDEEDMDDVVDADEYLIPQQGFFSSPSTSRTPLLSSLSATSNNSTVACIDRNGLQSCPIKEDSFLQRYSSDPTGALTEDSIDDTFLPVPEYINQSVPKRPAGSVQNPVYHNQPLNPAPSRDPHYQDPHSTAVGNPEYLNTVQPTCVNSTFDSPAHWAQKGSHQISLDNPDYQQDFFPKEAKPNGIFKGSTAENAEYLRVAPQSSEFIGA

| SMILES | IC50 (A431 cells (EGFR WT)) | IC50 [1] | IC50 [2] | IC50 [3] | also measured |
| --- | --- | --- | --- | --- | --- |
| COc1cc(N2CCC(N3CCN(C)CC3)CC2)ccc1Nc1ncc(Br)c(Nc2ccc3nccnc3c2P(C)(C)=O)n1 [Example 60] | 271 nM | 271 nM | 47.6 nM |  |  |
| COc1cc(N2CCC(N3CCN(C)CC3)CC2)ccc1Nc1ncc(Cl)c(Nc2ccc3sccc3c2P(C)(C)=O)n1 [Compound 3] | 3240 nM | 187 nM | 638 nM |  |  |
| COc1cc(N2CCC(N3CCN(C)CC3)CC2)ccc1Nc1ncc(Cl)c(Nc2ccc3nccnc3c2P(C)(C)=O)n1 [Example 59] | 534 nM | 534 nM | 54.3 nM |  |  |
| COc1cc(N2CCC(N3CCN(C)CC3)CC2)c(C)cc1Nc1ncc(Cl)c(Nc2ccc3nccnc3c2P(C)(C)=O)n1 [Example 61] | 58 nM | 58 nM | 32.2 nM |  |  |
| COc1cc(N2CCC3(CCN(C)CC3)CC2)c(Cl)cc1Nc1ncc(Cl)c(Nc2ccc3ccccc3c2P(C)(C)=O)n1 [Compound 4] | 3750 nM | 278 nM | 556 nM |  |  |
| COc1cc(N2CCC(N3CCN(C)CC3)CC2)ccc1Nc1ncc(Cl)c(Nc2ccc3ccccc3c2P(C)(C)=O)n1 [Compound 6] | 997 nM | 187 nM | 361 nM | 2.54 nM |  |
| COc1cc(N2CCC(N3CCN(C)CC3)CC2)ccc1Nc1ncc(Cl)c(Nc2ccccc2P(C)(C)=O)n1 [Brigatinib, reference compound] |  |  |  |  | antitumor efficacy [4]: good antitumor efficacy; AUC(0-t) ([5]; BALB/c nude, plasma): 32.8 µM·h; half-life ([5]; BALB/c nude, plasma): 5.57 h; concentration at 2 h ([5]; BALB/c nude, plasma, 2 h after administration): 5.18 µM; Lung, 2 h ([5]; 2 h after administration): 10217 nmol/kg; Tumor, 2 h ([5]; 2 h after administration): 5807 nmol/kg |
| COc1cc(N2CCC3(CC2)CN(CCN(C)C)C3)c(C)cc1Nc1cc(Nc2ccc3nccnc3c2P(C)(C)=O)c(Br)cn1 [Compound 37] | 357 nM | 94 nM | 56 nM |  |  |
| O=C(Nc1nccs1)C(c1cc(F)ccc1O)N1Cc2ccccc2C1=O (stereo not drawn) [EAI045] |  |  |  |  | tumor inhibition effect [6]: better tumor inhibition effect |

Further lines, with some results ahead:

| IC50 (A431 cells (EGFR WT)) | IC50 [1] | IC50 [2] | IC50 [3] | SMILES | also measured |
| --- | --- | --- | --- | --- | --- |
| 168 nM | 25 nM | 45 nM |  | COc1cc(N2CCC3(CC2)CN(C)C3)c(C)cc1Nc1ncc(Br)c(Nc2ccc3nccnc3c2P(C)(C)=O)n1 [Compound 36] |  |
| 1260 nM | 203 nM | 239 nM |  | COc1cc(N2CCC3(CC2)CN(C)C3)c(C)cc1Nc1ncc(Cl)c(Nc2ccc3cccnc3c2P(C)(C)=O)n1 [Compound 12] |  |
| 282 nM | 149 nM | 149 nM | 0.485 nM | COc1cc(N2CCC3(CC2)CN(C)C3)c(C)cc1Nc1ncc(Cl)c(Nc2ccc3ccccc3c2P(C)(C)=O)n1 [Compound 9] |  |
| > 10000 nM | 1720 nM | 3620 nM | 5.79 nM | COc1cc(N2CCC3(CC2)CN(C)C3)c(C)cc1Nc1ncc(Cl)c(Nc2ccc3cnn(C)c3c2P(C)(C)=O)n1 [Compound 13] |  |
| 890 nM | 96 nM | 313 nM | 1.63 nM | COc1cc(N2CCC3(CC2)CN(C)C3)ccc1Nc1ncc(Cl)c(Nc2ccc3ccccc3c2P(C)(C)=O)n1 [Compound 5] |  |
| 811 nM | 68 nM | 178 nM | 0.613 nM | COc1cc(N2CCC3(CC2)CN(C)C3)c(C)cc1Nc1ncc(Cl)c(Nc2ccc3sccc3c2P(C)(C)=O)n1 [Compound 2] |  |
| 561 nM | 24 nM | 31 nM |  | CCc1cc(Nc2ncc(Br)c(Nc3ccc4nccnc4c3P(C)(C)=O)n2)c(OC)cc1N1CCC2(CC1)CN(C)C2 [Compound 40] |  |

— US11390625B2, “Aryl-phosphorus-oxygen compound as EGFR kinase inhibitor” (Chia Tai Tianqing Pharmaceutical Group Co., Ltd., priority 2017, dated 2022)
